Results: publication PMC11940147, “Copper Hexacyanoferrates Obtained via Flavocytochrome b2 Assistance: Characterization and Application” (Biosensors, 2025)

Assays:
[1] = target: T1, flavocytochrome b2 (Fcb2) (Ogataea polymorpha, UniProt A0A9P8PNE1); test: cyclic voltammetry and chronoamperometry, Fcb2 in gCuHCF on graphite electrode; assay type: biochemical
T1 construct: gene OGATHE_001663
T1 sequence (A0A9P8PNE1 55-553): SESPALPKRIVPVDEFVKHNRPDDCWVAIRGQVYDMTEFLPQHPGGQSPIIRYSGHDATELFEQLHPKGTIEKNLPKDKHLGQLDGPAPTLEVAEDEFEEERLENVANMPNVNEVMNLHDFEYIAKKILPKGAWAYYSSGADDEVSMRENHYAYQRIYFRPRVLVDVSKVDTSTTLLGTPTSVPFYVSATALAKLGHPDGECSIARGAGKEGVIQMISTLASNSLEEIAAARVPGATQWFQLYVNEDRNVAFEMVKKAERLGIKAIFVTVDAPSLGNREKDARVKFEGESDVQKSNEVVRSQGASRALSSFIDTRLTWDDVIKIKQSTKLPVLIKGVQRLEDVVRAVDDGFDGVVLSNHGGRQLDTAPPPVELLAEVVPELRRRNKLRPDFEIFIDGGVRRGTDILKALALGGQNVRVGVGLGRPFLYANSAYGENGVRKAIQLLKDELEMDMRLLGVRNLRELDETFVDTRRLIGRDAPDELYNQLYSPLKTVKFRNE

[2] = tested on: T2, L-arginine oxidase (ArgO); test: colorimetric H2O2 detection with gCuHCF and o-dianisidine, Lineweaver-Burke; assay type: biochemical, Amanita phalloides; conditions: enzyme in solution; coupled to gCuHCF peroxidase mimic
T2 construct: native, purified from the mushroom by the authors' method
Source text: colorimetric H2O2 detection with gCuHCF and o-dianisidine, Lineweaver-Burke on L-arginine oxidase (ArgO) | kinetic constants of ArgO in the ArgO/gCuHCF/o-DZ method with respect to Arg

Compound | cyclic voltammetry and chronoamperometry, Fcb2 in gCuHCF on graphite electrode [1] | Km [2] [µM]
C[C@H](O)C(=O)O [L-lactate] | current output on lactate addition correlates with Fcb2 activity in the sensing layer | –
N=C(N)NCCC[C@H](N)C(=O)O [L-arginine] | – | 300
